Assay results as given in ChEMBL document CHEMBL3352591, “Total synthesis of clavatadine A” (J Nat Prod, 2015).

Biological target: Coagulation factor XI (Homo sapiens, UniProt P03951)
Experiment: Inhibition of human coagulation factor 11a pre-incubated for 15 mins before substrate S2366 addition and measured after 2 hrs post substrate addition

Coagulation factor XI, sequence (P03951 19-387 limits assumed): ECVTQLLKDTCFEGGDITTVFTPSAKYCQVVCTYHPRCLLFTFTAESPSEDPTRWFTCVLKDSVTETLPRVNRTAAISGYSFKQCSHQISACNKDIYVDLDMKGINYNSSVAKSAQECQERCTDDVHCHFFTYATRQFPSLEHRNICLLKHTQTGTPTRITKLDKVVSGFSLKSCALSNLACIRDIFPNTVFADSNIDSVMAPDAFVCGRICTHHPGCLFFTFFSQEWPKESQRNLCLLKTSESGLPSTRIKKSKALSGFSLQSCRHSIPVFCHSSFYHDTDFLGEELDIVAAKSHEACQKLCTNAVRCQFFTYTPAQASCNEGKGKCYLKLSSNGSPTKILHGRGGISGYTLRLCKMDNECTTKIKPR
Coagulation factor XI, sequence (P03951 388-625 limits assumed): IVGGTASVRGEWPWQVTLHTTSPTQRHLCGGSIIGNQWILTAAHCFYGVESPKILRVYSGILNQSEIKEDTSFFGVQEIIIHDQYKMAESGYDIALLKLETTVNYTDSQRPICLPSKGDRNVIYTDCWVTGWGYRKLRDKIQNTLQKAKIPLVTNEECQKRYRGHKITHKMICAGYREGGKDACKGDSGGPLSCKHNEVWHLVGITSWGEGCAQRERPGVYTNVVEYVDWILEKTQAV

N=C(N)NCCCCNC(=O)Oc1c(Br)cc(O)c(CC(=O)O)c1Br
IC50: 6.3 µM
